Measurements: PubChem BioAssay (NCI)
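GI50 marks 50% less growth. The concentration for full growth arrest is given as TGI.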

Key:
Assay in all cases: DTP human tumour cell line panel, 384-well format
786-0 renal = system: 786-0 renal
A498 renal = system: A498 renal
A549 NSCLC = system: A549 NSCLC
ACHN renal = system: ACHN renal
BT-549 breast = system: BT-549 breast
CAKI-1 renal = system: CAKI-1 renal
CCRF-CEM leukemia = system: CCRF-CEM leukemia
COLO 205 colon = system: COLO 205 colon
DU-145 prostate = system: DU-145 prostate
EKVX NSCLC = system: EKVX NSCLC
HCC-2998 colon = system: HCC-2998 colon
HCT-116 colon = system: HCT-116 colon
HCT-15 colon = system: HCT-15 colon
HL-60(TB) leukemia = system: HL-60(TB) leukemia
HOP-62 NSCLC = system: HOP-62 NSCLC
HOP-92 NSCLC = system: HOP-92 NSCLC
HS 578T breast = system: HS 578T breast
HT29 colon = system: HT29 colon
IGROV1 ovarian = system: IGROV1 ovarian
K-562 leukemia = system: K-562 leukemia
KM12 colon = system: KM12 colon
LOX IMVI melanoma = system: LOX IMVI melanoma
M14 melanoma = system: M14 melanoma
MALME-3M melanoma = system: MALME-3M melanoma
MCF7 breast = system: MCF7 breast
MDA-MB-231 breast = system: MDA-MB-231 breast
MDA-MB-435 melanoma = system: MDA-MB-435 melanoma
MDA-MB-468 breast = system: MDA-MB-468 breast
MOLT-4 leukemia = system: MOLT-4 leukemia
NCI-H226 lung = system: NCI-H226 lung
NCI-H23 lung = system: NCI-H23 lung
NCI-H322M lung = system: NCI-H322M lung
NCI-H460 NSCLC = system: NCI-H460 NSCLC
NCI-H522 lung = system: NCI-H522 lung
NCI/ADR-RES ovarian = system: NCI/ADR-RES ovarian
OVCAR-3 ovarian = system: OVCAR-3 ovarian
OVCAR-4 ovarian = system: OVCAR-4 ovarian
OVCAR-5 ovarian = system: OVCAR-5 ovarian
PC-3 prostate = system: PC-3 prostate
RPMI-8226 leukemia = system: RPMI-8226 leukemia
RXF 393 renal = system: RXF 393 renal
SF-268 CNS = system: SF-268 CNS
SF-295 CNS = system: SF-295 CNS
SF-539 CNS = system: SF-539 CNS
SK-MEL-2 melanoma = system: SK-MEL-2 melanoma
SK-MEL-28 melanoma = system: SK-MEL-28 melanoma
SK-MEL-5 melanoma = system: SK-MEL-5 melanoma
SK-OV-3 ovarian = system: SK-OV-3 ovarian
SN12C renal = system: SN12C renal
SNB-19 CNS = system: SNB-19 CNS
SNB-75 CNS = system: SNB-75 CNS
SR leukemia = system: SR leukemia
SW-620 colon = system: SW-620 colon
T-47D breast = system: T-47D breast
TK-10 renal = system: TK-10 renal
U251 glioblastoma = system: U251 glioblastoma
UACC-257 melanoma = system: UACC-257 melanoma
UACC-62 melanoma = system: UACC-62 melanoma
UO-31 renal = system: UO-31 renal

SMILES: NCCCCN(Cc1nc2ccccc2[nH]1)[C@H]1CCCc2cccnc21
- GI50 ([…]-0 renal): 8.34 µM
- TGI (786-0 renal): 31.3 µM
- GI50 (A498 renal): 14.7 µM
- TGI (A498 renal): 44.2 µM
- GI50 (A549 NSCLC): 9.68 µM
- TGI (A549 NSCLC): 28.4 µM
- GI50 (ACHN renal): 17.3 µM
- TGI (ACHN renal): 35.9 µM
- GI50 (BT-549 breast): 7.45 µM
- TGI (BT-549 breast): 28.5 µM
- GI50 (CAKI-1 renal): 7.89 µM
- TGI (CAKI-1 renal): 22.5 µM
- GI50 (CCRF-CEM leukemia): 5.43 µM
- TGI (CCRF-CEM leukemia): 18.5 µM
- GI50 (COLO 205 colon): 2.35 µM
- TGI (COLO 205 colon): 5.73 µM
- GI50 (DU-145 prostate): 7.23 µM
- TGI (DU-145 prostate): > 100 µM
- GI50 (EKVX NSCLC): 8.83 µM
- TGI (EKVX NSCLC): 24.5 µM
- GI50 (HCC-2998 colon): 4.63 µM
- TGI (HCC-2998 colon): 18.4 µM
- GI50 (HCT-116 colon): 5.3 µM
- TGI (HCT-116 colon): 20.5 µM
- GI50 (HCT-15 colon): 13.9 µM
- TGI (HCT-15 colon): 32.2 µM
- GI50 (HL-60(TB) leukemia): 1.35 µM
- TGI (HL-60(TB) leukemia): 2.82 µM
- GI50 (HOP-62 NSCLC): 3.94 µM
- TGI (HOP-62 NSCLC): 19 µM
- GI50 (HOP-92 NSCLC): 2.7 µM
- TGI (HOP-92 NSCLC): 13.4 µM
- GI50 (HS 578T breast): 4.57 µM
- TGI (HS 578T breast): 18.4 µM
- GI50 (HT29 colon): 3.6 µM
- TGI (HT29 colon): 13.4 µM
- GI50 (IGROV1 ovarian): 5.7 µM
- TGI (IGROV1 ovarian): 19.1 µM
- GI50 (K-562 leukemia): 10.2 µM
- TGI (K-562 leukemia): 22.5 µM
- GI50 (KM12 colon): 6.23 µM
- TGI (KM12 colon): 33.8 µM
- GI50 (LOX IMVI melanoma): 9.28 µM
- TGI (LOX IMVI melanoma): 23 µM
- GI50 (M14 melanoma): 5.75 µM
- TGI (M14 melanoma): 18.4 µM
- GI50 (MALME-3M melanoma): 11.9 µM
- TGI (MALME-3M melanoma): 24.3 µM
- GI50 (MCF7 breast): 7.6 µM
- TGI (MCF7 breast): 25.9 µM
- GI50 (MDA-MB-231 breast): 4.42 µM
- TGI (MDA-MB-231 breast): 23.6 µM
- GI50 (MDA-MB-435 melanoma): 7.39 µM
- TGI (MDA-MB-435 melanoma): 23.3 µM
- GI50 (MDA-MB-468 breast): 2.81 µM
- TGI (MDA-MB-468 breast): 8.14 µM
- GI50 (MOLT-4 leukemia): 1.31 µM
- TGI (MOLT-4 leukemia): 2.84 µM
- GI50 (NCI-H226 lung): 10.4 µM
- TGI (NCI-H226 lung): 23.5 µM
- GI50 (NCI-H23 lung): 4.94 µM
- TGI (NCI-H23 lung): 22.9 µM
- GI50 (NCI-H322M lung): 4.64 µM
- TGI (NCI-H322M lung): 24.6 µM
- GI50 (NCI-H460 NSCLC): 4.47 µM
- TGI (NCI-H460 NSCLC): 18.1 µM
- GI50 (NCI-H522 lung): 2.68 µM
- TGI (NCI-H522 lung): 18.6 µM
- GI50 (NCI/ADR-RES ovarian): 16 µM
- TGI (NCI/ADR-RES ovarian): 31.6 µM
- GI50 (OVCAR-3 ovarian): 2.2 µM
- TGI (OVCAR-3 ovarian): 15.9 µM
- GI50 (OVCAR-4 ovarian): 4.66 µM
- TGI (OVCAR-4 ovarian): 26.2 µM
- GI50 (OVCAR-5 ovarian): 5.13 µM
- TGI (OVCAR-5 ovarian): 28.2 µM
- GI50 (PC-3 prostate): 6.25 µM
- TGI (PC-3 prostate): 40.8 µM
- GI50 (RPMI-8226 leukemia): 5.63 µM
- TGI (RPMI-8226 leukemia): 19.1 µM
- GI50 (RXF 393 renal): 4.56 µM
- TGI (RXF 393 renal): 21.4 µM
- GI50 (SF-268 CNS): 5.51 µM
- TGI (SF-268 CNS): 35.1 µM
- GI50 (SF-295 CNS): 8.81 µM
- TGI (SF-295 CNS): 22.1 µM
- GI50 (SF-539 CNS): 9.07 µM
- TGI (SF-539 CNS): 21.3 µM
- GI50 (SK-MEL-2 melanoma): 20.3 µM
- TGI (SK-MEL-2 melanoma): 34.7 µM
- GI50 (SK-MEL-28 melanoma): 11.4 µM
- TGI (SK-MEL-28 melanoma): 24.3 µM
- GI50 (SK-MEL-5 melanoma): 2.62 µM
- TGI (SK-MEL-5 melanoma): 15.9 µM
- GI50 (SK-OV-3 ovarian): 9.63 µM
- TGI (SK-OV-3 ovarian): 40.4 µM
- GI50 (SN12C renal): 9.33 µM
- TGI (SN12C renal): 52.2 µM
- GI50 (SNB-19 CNS): 18 µM
- TGI (SNB-19 CNS): > 100 µM
- GI50 (SNB-75 CNS): 4.2 µM
- TGI (SNB-75 CNS): 18.1 µM
- GI50 (SR leukemia): 1.3 µM
- TGI (SR leukemia): 2.59 µM
- GI50 (SW-620 colon): 10.4 µM
- TGI (SW-620 colon): 34.1 µM
- GI50 (T-47D breast): 12.7 µM
- TGI (T-47D breast): 32.1 µM
- GI50 (TK-10 renal): 10.6 µM
- TGI (TK-10 renal): 23.6 µM
- GI50 (U251 glioblastoma): 6.5 µM
- TGI (U251 glioblastoma): 25.9 µM
- GI50 (UACC-257 melanoma): 7.89 µM
- TGI (UACC-257 melanoma): 20.5 µM
- GI50 (UACC-62 melanoma): 10.1 µM
- TGI (UACC-62 melanoma): 22.3 µM
- GI50 (UO-31 renal): 13.4 µM
- TGI (UO-31 renal): 29.1 µM
